Assay results: patent publication US12404262B2 (priority 2021, dated 2025)

Settings: 1.0% DMSO, 24-hour incubation at ambient temperature, maximum theoretical 100 μM; for pH 2 solubility: 0.1N HCl, first value of the cell; for pH 7 solubility: 1×PBS buffer (pH 7.4), second value of the cell

| Compound | pH 2 solubility | pH 7 solubility |
| --- | --- | --- |
| C[C@@H](O)CN(C)C(=O)N(c1nn(CC(F)(F)F)c2c(-c3ccc(C#CC(C)(C)S(C)(=O)=O)nc3[C@H](Cc3cc(F)cc(F)c3)NC(=O)Cn3nc(C(F)(F)F)c4c3C(F)(F)[C@@H]3C[C@H]43)ccc(Cl)c12)S(C)(=O)=O [Compound 48, N—((S)-1-(3-(4-chloro-3-(N—(((R)-2-hydroxypropyl)(methyl)carbamoyl)methylsulfonamido)-1-(2,2,2-trifluoroethyl)-1H-indazol-7-yl)-6-(3-methyl-3-(methylsulfonyl)but-1-yn-1-yl)pyridin-2-yl)-2-(3,5-difluorophenyl)ethyl)-2-((3bS,4aR)-5,5-difluoro-3-(trifluoromethyl)-3b,4,4a,5-tetrahydro-1H-cyclopropa[3,4]cyclopenta[1,2-c]pyrazol-1-yl)acetamide] | 1/1 μM | 1/1 μM |
| CC(C)(C#Cc1ccc(-c2ccc(Cl)c3c(N(C(=O)CN4CCNCC4)S(C)(=O)=O)nn(CC(F)(F)F)c23)c([C@H](Cc2cc(F)cc(F)c2)NC(=O)Cn2nc(C(F)(F)F)c3c2C(F)(F)[C@@H]2C[C@H]32)n1)S(C)(=O)=O [Compound 7, (N-(4-chloro-7-(2-((S)-1-(2-((3bS,4aR)-5,5-difluoro-3-(trifluoromethyl)-3b,4,4a,5-tetrahydro-1H-cyclopropa[3,4]cyclopenta[1,2-c]pyrazol-1-yl)acetamido)-2-(3,5-difluorophenyl)ethyl)-6-(3-methyl-3-(methylsulfonyl)but-1-yn-1-yl)pyridin-3-yl)-1-(2,2,2-trifluoroethyl)-1H-indazol-3-yl)-N-(methylsulfonyl)-2-(piperazin-1-yl)acetamide)] | 65 μM | 7 μM |
| CC(C)(C#Cc1ccc(-c2ccc(Cl)c3c(N(C(=O)CN4CCN(C(=N)N)CC4)S(C)(=O)=O)nn(CC(F)(F)F)c23)c([C@H](Cc2cc(F)cc(F)c2)NC(=O)Cn2nc(C(F)(F)F)c3c2C(F)(F)[C@@H]2C[C@H]32)n1)S(C)(=O)=O [Compound 8, 2-(4-carbamimidoylpiperazin-1-yl)-N-(4-chloro-7-(2-((S)-1-(2-((3bS,4aR)-5,5-difluoro-3-(trifluoromethyl)-3b,4,4a,5-tetrahydro-1H-cyclopropa[3,4]cyclopenta[1,2-c]pyrazol-1-yl)acetamido)-2-(3,5-difluorophenyl)ethyl)-6-(3-methyl-3-(methylsulfonyl)but-1-yn-1-yl)pyridin-3-yl)-1-(2,2,2-trifluoroethyl)-1H-indazol-3-yl)-N-(methylsulfonyl)acetamide] | 57 μM | 6 μM |
| CC(C)(CO)NC(=O)N(c1nn(CC(F)(F)F)c2c(-c3ccc(C#CC(C)(C)S(C)(=O)=O)nc3[C@H](Cc3cc(F)cc(F)c3)NC(=O)Cn3nc(C(F)(F)F)c4c3C(F)(F)[C@@H]3C[C@H]43)ccc(Cl)c12)S(C)(=O)=O [Compound 39, N—((S)-1-(3-(4-chloro-3-(N-((1-hydroxy-2-methylpropan-2-yl)carbamoyl)methylsulfonamido)-1-(2,2,2-trifluoroethyl)-1H-indazol-7-yl)-6-(3-methyl-3-(methylsulfonyl)but-1-yn-1-yl)pyridin-2-yl)-2-(3,5-difluorophenyl)ethyl)-2-((3bS,4aR)-5,5-difluoro-3-(trifluoromethyl)-3b,4,4a,5-tetrahydro-1H-cyclopropa[3,4]cyclopenta[1,2-c]pyrazol-1-yl)acetamide] | 1 μM | 2 μM |
| CC(C)(C#Cc1ccc(-c2ccc(Cl)c3c(N(C(=O)OCCN4CCOCC4)S(C)(=O)=O)nn(CC(F)(F)F)c23)c([C@H](Cc2cc(F)cc(F)c2)NC(=O)Cn2nc(C(F)(F)F)c3c2C(F)(F)[C@@H]2C[C@H]32)n1)S(C)(=O)=O [Compound 114, 2-morpholinoethyl (4-chloro-7-(2-((S)-1-(2-((3bS,4aR)-5,5-difluoro-3-(trifluoromethyl)-3b,4,4a,5-tetrahydro-1H-cyclopropa[3,4]cyclopenta[1,2-c]pyrazol-1-yl)acetamido)-2-(3,5-difluorophenyl)ethyl)-6-(3-methyl-3-(methylsulfonyl)but-1-yn-1-yl)pyridin-3-yl)-1-(2,2,2-trifluoroethyl)-1H-indazol-3-yl)(methylsulfonyl)carbamate] | 24 μM | 1 μM |
| CC(C)(C#Cc1ccc(-c2ccc(Cl)c3c(N(C(=O)C(N)=O)S(C)(=O)=O)nn(CC(F)(F)F)c23)c([C@H](Cc2cc(F)cc(F)c2)NC(=O)Cn2nc(C(F)(F)F)c3c2C(F)(F)[C@@H]2C[C@H]32)n1)S(C)(=O)=O [Compound 10, N1-(4-chloro-7-(2-((S)-1-(2-((3bS,4aR)-5,5-difluoro-3-(trifluoromethyl)-3b,4,4a,5-tetrahydro-1H-cyclopropa[3,4]cyclopenta[1,2-c]pyrazol-1-yl)acetamido)-2-(3,5-difluorophenyl)ethyl)-6-(3-methyl-3-(methylsulfonyl)but-1-yn-1-yl)pyridin-3-yl)-1-(2,2,2-trifluoroethyl)-1H-indazol-3-yl)-N1-(methylsulfonyl)oxalamide] | 2/2 μM | 2/2 μM |
| CC(C)(C#Cc1ccc(-c2ccc(Cl)c3c(N(C(=O)NCCN4CCN(C(=N)N)CC4)S(C)(=O)=O)nn(CC(F)(F)F)c23)c([C@H](Cc2cc(F)cc(F)c2)NC(=O)Cn2nc(C(F)(F)F)c3c2C(F)(F)[C@@H]2C[C@H]32)n1)S(C)(=O)=O [Compound 74, N—((S)-1-(3-(3-(N-((2-(4-carbamimidoylpiperazin-1-yl)ethyl)carbamoyl)methylsulfonamido)-4-chloro-1-(2,2,2-trifluoroethyl)-1H-indazol-7-yl)-6-(3-methyl-3-(methylsulfonyl)but-1-yn-1-yl)pyridin-2-yl)-2-(3,5-difluorophenyl)ethyl)-2-((3bS,4aR)-5,5-difluoro-3-(trifluoromethyl)-3b,4,4a,5-tetrahydro-1H-cyclopropa[3,4]cyclopenta[1,2-c]pyrazol-1-yl)acetamide] | 72 μM | 24 μM |
| CN1CCN(CC(=O)N(c2nn(CC(F)(F)F)c3c(-c4ccc(C#CC(C)(C)S(C)(=O)=O)nc4[C@H](Cc4cc(F)cc(F)c4)NC(=O)Cn4nc(C(F)(F)F)c5c4C(F)(F)[C@@H]4C[C@H]54)ccc(Cl)c23)S(C)(=O)=O)CC1 [Compound 6, (N-(4-chloro-7-(2-((S)-1-(2-((3bS,4aR)-5,5-difluoro-3-(trifluoromethyl)-3b,4,4a,5-tetrahydro-1H-cyclopropa[3,4]cyclopenta[1,2-c]pyrazol-1-yl)acetamido)-2-(3,5-difluorophenyl)ethyl)-6-(3-methyl-3-(methylsulfonyl)but-1-yn-1-yl)pyridin-3-yl)-1-(2,2,2-trifluoroethyl)-1H-indazol-3-yl)-2-(4-methylpiperazin-1-yl)-N-(methylsulfonyl)acetamide)] | 50 μM | 3 μM |
